According to US20150105252A1, “SUBSTITUTED PYRAZOLES AS HERBICIDES” (E I DU PONT DE NEMOURS AND COMPANY, priority 2013, published 2015):

Legend:
[1] = tested on: wheat; assay: Test A postemergence; assay type: in vivo, Triticum aestivum; details: Postemergence
Description: (§1) Seeds of plant species selected from barnyardgrass (Echinochloa crus-galli), kochia (Kochia scoparia), common ragweed (Ambrosia elation), Italian ryegrass (Lolium multiflorum), crabgrass, large (large crabgrass, Digitaria sanguinalis), foxtail, giant (giant foxtail, Setaria faberii), morningglory (Ipomoea spp.), pigweed (redroot pigweed, Amaranthus retroflexus), velvetleaf (Abutilon theophrasti), wheat (Triticum aestivum), and corn (Zea mays) were planted into a blend of loam soil and sand and treated preemergence with a directed soil spray using test chemicals formulated in a non-phytotoxic solvent mixture which included a surfactant.
(§2) At the same time, plants selected from these crop and weed species and also blackgrass (Alopecurus myosuroides), and galium (catchweed bedstraw, Galium aparine) were planted in pots containing the same blend of loam soil and sand and treated with postemergence applications of test chemicals formulated in the same manner. Plants ranged in height from 2 to 10 cm and were in the one- to two-leaf stage for the postemergence treatment. Treated plants and untreated controls were maintained in a greenhouse for approximately 10 days, after which time all treated plants were compared to untreated controls and visually evaluated for injury. Plant response ratings, summarized in Table A, are based on a 0 to 100 scale where 0 is no effect and 100 is complete control. A dash (-) response means no test result.

[2] = tested on: pigweed; assay: Test A postemergence; assay type: in vivo, Amaranthus retroflexus; details: Postemergence
Description: as §1, §2

[3] = tested on: wheat; assay: Test A preemergence; assay type: in vivo, Triticum aestivum
Description: as §1, §2

[4] = tested on: corn; assay: Test A preemergence; assay type: in vivo, Zea mays; details: Preemergence, 1000 g ai/ha; 0 to 100 scale, 0 no effect, 100 complete control
Description: as §1, §2

[5] = tested on: barnyardgrass; assay: Test A preemergence; assay type: in vivo, Echinochloa crus-galli; details: Preemergence, 0 to 100 scale, 0 no effect, 100 complete control
Description: as §1, §2

[6] = tested on: pigweed; assay: Test A preemergence; assay type: in vivo, Amaranthus retroflexus; details: Preemergence, 1000 g ai/ha; 0 to 100 scale, 0 no effect, 100 complete control
Description: as §1, §2

[7] = tested on: morningglory; assay: Test A postemergence; assay type: in vivo, Ipomoea spp.; details: Postemergence
Description: as §1, §2

[8] = tested on: velvetleaf; assay: Test A preemergence; assay type: in vivo, Abutilon theophrasti; details: Preemergence, 0 to 100 scale, 0 no effect, 100 complete control
Description: as §1, §2

[9] = tested on: foxtail, giant; assay: Test A postemergence; assay type: in vivo, Setaria faberii; details: Postemergence, 1000 g ai/ha; visual rating after approx. 10 days, 0 to 100 scale (0 no effect, 100 complete control)
Description: as §1, §2

[10] = tested on: crabgrass, large; assay: Test A postemergence; assay type: in vivo, Digitaria sanguinalis; details: Postemergence, 1000 g ai/ha; visual rating after approx. 10 days, 0 to 100 scale (0 no effect, 100 complete control)
Description: as §1, §2

[11] = tested on: corn; assay: Test A postemergence; assay type: in vivo, Zea mays; details: Postemergence, 1000 g ai/ha; visual rating after approx. 10 days, 0 to 100 scale (0 no effect, 100 complete control)
Description: as §1, §2

[12] = tested on: velvetleaf; assay: Test A postemergence; assay type: in vivo, Abutilon theophrasti; details: Postemergence
Description: as §1, §2

[13] = tested on: morningglory; assay: Test A preemergence; assay type: in vivo, Ipomoea spp.; details: Preemergence, 0 to 100 scale, 0 no effect, 100 complete control
Description: as §1, §2

[14] = tested on: crabgrass, large; assay: Test A preemergence; assay type: in vivo, Digitaria sanguinalis; details: Preemergence, 0 to 100 scale, 0 no effect, 100 complete control
Description: as §1, §2

[15] = tested on: barnyardgrass; assay: Test A postemergence; assay type: in vivo, Echinochloa crus-galli; details: Postemergence, 1000 g ai/ha; visual rating after approx. 10 days, 0 to 100 scale (0 no effect, 100 complete control)
Description: as §1, §2

[16] = tested on: foxtail, giant; assay: Test A preemergence; assay type: in vivo, Setaria faberii; details: Preemergence, 1000 g ai/ha; 0 to 100 scale, 0 no effect, 100 complete control
Description: as §1, §2

[17] = 1000 g ai/ha, visual rating after approx. 10 days, 0 to 100 scale (0 no effect, 100 complete control)
[18] = Preemergence, 1000 g ai/ha, 0 to 100 scale, 0 no effect, 100 complete control
[19] = preemergence, 500 g ai/ha, visual injury after approx. 10 days, 0 to 100 scale (0 no effect, 100 complete control)
[20] = 125 g ai/ha, 0 to 100 scale, 0 no effect, 100 complete control

Compound	Wheat plant response rating [1, 17]	Pigweed plant response rating [2, 17]	Wheat plant response rating [3, 18]	Corn plant response rating [4]	Barnyardgrass plant response rating ([5]; 1000 g ai/ha)	Pigweed plant response rating [6]	Morningglory plant response rating [7, 17]	Velvetleaf plant response rating ([8]; 1000 g ai/ha)	Foxtail, Giant plant response rating [9]	Crabgrass, Large plant response rating [10]	Corn plant response rating [11]	Velvetleaf plant response rating [12, 17]	Morningglory plant response rating ([13]; 1000 g ai/ha)	Crabgrass, Large plant response rating ([14]; 1000 g ai/ha)	Barnyardgrass plant response rating [15]	Foxtail, Giant plant response rating [16]	also measured
CCc1cc(C(=O)NC(C)(C)C)nn1Cc1cccc(OC(F)(F)F)c1 [Compound 59]	0	50	0	0	0	0	50	0	20	10	10	10	0	10	10	10	Wheat plant response rating [3, 19]: 10
O=C(NC1CC1)c1cc(C2CC2)n(Cc2cccc(OC(F)(F)F)c2)n1 [Compound 37]	20	100	0	0	0	20	80	0	10	20	30	70	0	40	10	30	
CCc1cc(C(=O)NC2CC2)nn1Cc1cccc(C(F)(F)F)c1 [Compound 15]	50	80	20	20	90	90	100	100	90	90	70	100	90	100	80	100	
CCc1cc(C(=O)NC(C)(C)C)nn1Cc1cccc(C(F)(F)F)c1 [Compound 50]	0	30	0	0	10	0	10	0	30	10	20	10	0	10	10	30	
C#CCNC(=O)c1cc(CC)n(Cc2cccc(C(F)(F)F)c2)n1 [Compound 41]	10	30	0	0	10	10	100	0	20	20	20	10	20	30	10	50	
O=C(NCC(F)(F)F)c1cc(C2CC2)n(Cc2cccc(OC(F)(F)F)c2)n1 [Compound 36]	0	90	0	0	0	30	90	0	30	30	20	60	0	20	20	20	
CCc1cc(C(=O)N(C)OC)nn1Cc1cccc(C(F)(F)F)c1 [Compound 66]	10	50	0	0	0	50	50	20	40	20	30	40	30	50	20	100	Wheat plant response rating [3, 19]: 0
Cc1cc(C(=O)NC(C)(C)C)nn1Cc1cccc(C(F)(F)F)c1 [Compound 1]							20			30		30			30		Barnyardgrass plant response rating ([5]; 2000 g ai/ha): 10; Velvetleaf plant response rating ([8]; 2000 g ai/ha): 0; Morningglory plant response rating ([13]; 2000 g ai/ha): 0; Crabgrass, Large plant response rating ([14]; 2000 g ai/ha): 10
O=C(NC1CC1)c1cc(CCCl)n(Cc2ccnc(C(F)(F)F)c2)n1 [Compound 194]																	Wheat plant response rating [1, 20]: 0; Pigweed plant response rating [2, 20]: 50; Morningglory plant response rating [7, 20]: 50; Velvetleaf plant response rating [12, 20]: 60
Cc1cc(C(=O)NC2CC2)nn1Cc1cccc(C(F)(F)F)c1 [Compound 2]							80			50		70			50		Barnyardgrass plant response rating ([5]; 2000 g ai/ha): 90; Velvetleaf plant response rating ([8]; 2000 g ai/ha): 100; Morningglory plant response rating ([13]; 2000 g ai/ha): 100; Crabgrass, Large plant response rating ([14]; 2000 g ai/ha): 100
